Data on seven compounds can be found in patent US8076487B2, “Pyridone derivative and herbicide” (Kumiai Chemical Industry Co., Ltd., priority 2006, dated 2011).

Common to all, as to type: in vivo
Assay [1] has as its system Japanese bulrush (Scirpus juncoides Roxb.). The assay can be described thus: Test Example 1: herbicidal effect by soil application to paddy field. The conditions noted are these: paddy field soil application; active ingredient 1,000 g per 1 hectare; wettable powder added dropwise to water surface the day after sowing; examined on the 21st day after application. In a few lines: (§1)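 Plants were sown in flooded (3 cm) paddy soil and evaluated for herbicidal effect 21 days after soil application in a greenhouse.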

Assay [2] deals with early watergrass (Echinochloa oryzicola Vasing). Described as above. The conditions noted are these: paddy field soil application; active ingredient 1,000 g per 1 hectare; wettable powder added dropwise to water surface the day after sowing; examined on the 21st day after application. An outline of the steps:
as §1

The test system of assay [3] is heartshape false pickerelweed (Monochoria vaginalis (Burm.f.) C.Presl). Described as above. The conditions noted are these: paddy field soil application; active ingredient 1,000 g per 1 hectare; wettable powder added dropwise to water surface the day after sowing; examined on the 21st day after application. In a few lines: as §1
The test system of assay [4] is barnyardgrass (Echinochloa crus-galli (L.) P. Beauv. var. crus-galli). The assay is described as follows: Test Example 2: herbicidal effect by soil application to upland field. As to conditions: soil surface spray, upland field soil, 1,000 g active ingredient per hectare, 21st day after application. An outline of the steps: (§2)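 Soil surface treatment after sowing: wettable powder in water, 1,000 g a.i./ha, spray volume 1,000 L/ha. Greenhouse. Scored on a standard herbicidal scale at day 21.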

In assay [5] the test system is green foxtail (Setaria viridis (L.) P. Beauv.). Described as above. As to conditions: soil surface spray, upland field soil, 1,000 g active ingredient per hectare, 21st day after application. An outline of the steps: as §2
The subject of assay [6] is slender amaranth (Amaranthus viridis L.). The assay is described as above. As to conditions: soil surface spray, upland field soil, 1,000 g active ingredient per hectare, 21st day after application. In a few lines:
as §2

Assay [7] relates to velvetleaf (Abutilon theophrasti medicus). Described as above. The conditions noted are these: soil surface spray, upland field soil, 1,000 g active ingredient per hectare, 21st day after application. An outline of the steps: as §2
In assay [8] the test system is barnyardgrass (Echinochloa crus-galli (L.) P. Beauv. var. crus-galli). The assay is described as follows: Test Example 3: herbicidal effect by application to upland field (foliage treatment). As to conditions: foliage treatment, plants grown two weeks, 1,000 g active ingredient per hectare, 14th day after application. In a few lines:
(§3)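 Plants were sown in field soil and raised in a greenhouse for two weeks before foliar spraying. A water-diluted wettable powder was applied at 1,000 g active ingredient per hectare in 1,000 liters per hectare. Herbicidal effect was scored on a standard scale 14 days later.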

For assay [9], the system named is green foxtail (Setaria viridis (L.) P. Beauv.). The description is as above. The conditions noted are these: foliage treatment, plants grown two weeks, 1,000 g active ingredient per hectare, 14th day after application. In a few lines:
as §3

The subject of assay [10] is slender amaranth (Amaranthus viridis L.). The assay is described as above. As to conditions: foliage treatment, plants grown two weeks, 1,000 g active ingredient per hectare, 14th day after application. In a few lines:
as §3

For assay [11], the system named is velvetleaf (Abutilon theophrasti medicus). The description is as above. As to conditions: foliage treatment, plants grown two weeks, 1,000 g active ingredient per hectare, 14th day after application. An outline of the steps:
as §3

Molecules are shown by their SMILES.

As for `COc1ccc(-n2c(C(F)(F)F)ccc(C(=O)C3=C(O)CCCC3=O)c2=O)cc1OC` [I-100], the “herbicidal effect, Scirpus juncoides Roxb.” value in assay [1] is 5 (90% or more of herbicidal effect and crop phytotoxicity). Moreover, in assay [2], the “herbicidal effect, Echinochloa oryzicola Vasing” value is 5 (90% or more of herbicidal effect and crop phytotoxicity). In addition, the “herbicidal effect, Monochoria vaginalis (Burm. f.) C. Presl” value (from here on “herbicidal effect, Monochoria vaginalis”) in [3] is 5 (90% or more of herbicidal effect and crop phytotoxicity). Also, the “herbicidal effect (index), Barnyardgrass” value is 5 (90% or more of herbicidal effect and crop phytotoxicity) in [4]; 5 (90% or more of herbicidal effect and crop phytotoxicity) in assay [8]. Besides, the “herbicidal effect (index), Green Foxtail” value in assay [5] is 4 (70 to less than 90% of herbicidal effect and crop phytotoxicity); in assay [9] it was 4 (70 to less than 90% of herbicidal effect and crop phytotoxicity). For the same compound, the “herbicidal effect (index), Slender Amaranth” value is 5 (90% or more of herbicidal effect and crop phytotoxicity) in assay [6]; 5 (90% or more of herbicidal effect and crop phytotoxicity) in assay [10]. For the same compound, the “herbicidal effect (index), Velvetleaf” value in assay [7] is 5 (90% or more of herbicidal effect and crop phytotoxicity); in assay [11], 5 (90% or more of herbicidal effect and crop phytotoxicity).

`COc1cc(OC)cc(-n2c(C(F)(F)F)ccc(C(=O)C3=C(O)CCCC3=O)c2=O)c1` [I-101]: the “herbicidal effect, Scirpus juncoides Roxb.” value in assay [1] is 5 (90% or more of herbicidal effect and crop phytotoxicity). The “herbicidal effect, Echinochloa oryzicola Vasing” value in [2] is 5 (90% or more of herbicidal effect and crop phytotoxicity). Moreover, the “herbicidal effect, Monochoria vaginalis” value in [3] was 5 (90% or more of herbicidal effect and crop phytotoxicity). Besides, the “herbicidal effect (index), Barnyardgrass” value in assay [4] was 5 (90% or more of herbicidal effect and crop phytotoxicity); in assay [8], 5 (90% or more of herbicidal effect and crop phytotoxicity). The “herbicidal effect (index), Green Foxtail” value is 5 (90% or more of herbicidal effect and crop phytotoxicity) in assay [5]; 5 (90% or more of herbicidal effect and crop phytotoxicity) in assay [9]. The “herbicidal effect (index), Slender Amaranth” value in assay [6] was 5 (90% or more of herbicidal effect and crop phytotoxicity); in assay [10], 5 (90% or more of herbicidal effect and crop phytotoxicity). Moreover, the “herbicidal effect (index), Velvetleaf” value in assay [7] was 5 (90% or more of herbicidal effect and crop phytotoxicity); in assay [11], 5 (90% or more of herbicidal effect and crop phytotoxicity).

Turning to `O=C1CCCC(O)=C1C(=O)c1ccc(C(F)(F)F)n(-c2ccc(F)cc2F)c1=O` [I-102], the “herbicidal effect, Scirpus juncoides Roxb.” value in [1] was 5 (90% or more of herbicidal effect and crop phytotoxicity). Also, in assay [2], the “herbicidal effect, Echinochloa oryzicola Vasing” value was 5 (90% or more of herbicidal effect and crop phytotoxicity). The “herbicidal effect, Monochoria vaginalis” value in assay [3] was 5 (90% or more of herbicidal effect and crop phytotoxicity). For the same compound, the “herbicidal effect (index), Barnyardgrass” value in assay [4] is 5 (90% or more of herbicidal effect and crop phytotoxicity); in assay [8], 5 (90% or more of herbicidal effect and crop phytotoxicity). Further, the “herbicidal effect (index), Green Foxtail” value is 5 (90% or more of herbicidal effect and crop phytotoxicity) in [5]; 5 (90% or more of herbicidal effect and crop phytotoxicity) in assay [9]. The “herbicidal effect (index), Slender Amaranth” value was 5 (90% or more of herbicidal effect and crop phytotoxicity) in assay [6]; 5 (90% or more of herbicidal effect and crop phytotoxicity) in assay [10]. The “herbicidal effect (index), Velvetleaf” value in [7] is 5 (90% or more of herbicidal effect and crop phytotoxicity); in [11] it was 5 (90% or more of herbicidal effect and crop phytotoxicity).

As to `O=C1CCCC(O)=C1C(=O)c1ccc(C(F)(F)F)n(-c2cc(F)ccc2F)c1=O` [I-103], the “herbicidal effect, Scirpus juncoides Roxb.” value in assay [1] is 5 (90% or more of herbicidal effect and crop phytotoxicity). Also, in assay [2], the “herbicidal effect, Echinochloa oryzicola Vasing” value is 5 (90% or more of herbicidal effect and crop phytotoxicity). In assay [3], the “herbicidal effect, Monochoria vaginalis” value was 5 (90% or more of herbicidal effect and crop phytotoxicity). For the same compound, the “herbicidal effect (index), Barnyardgrass” value in assay [4] is 5 (90% or more of herbicidal effect and crop phytotoxicity); in assay [8] it was 5 (90% or more of herbicidal effect and crop phytotoxicity). The “herbicidal effect (index), Green Foxtail” value in [5] was 5 (90% or more of herbicidal effect and crop phytotoxicity); in [9] it was 5 (90% or more of herbicidal effect and crop phytotoxicity). The “herbicidal effect (index), Slender Amaranth” value in [6] is 5 (90% or more of herbicidal effect and crop phytotoxicity); in [10], 5 (90% or more of herbicidal effect and crop phytotoxicity). Further, the “herbicidal effect (index), Velvetleaf” value in [7] was 5 (90% or more of herbicidal effect and crop phytotoxicity); in assay [11], 5 (90% or more of herbicidal effect and crop phytotoxicity).

Consider `O=C1CCCC(O)=C1C(=O)c1ccc(C(F)(F)F)n(-c2ccc(F)c(F)c2)c1=O` [I-105], for which the “herbicidal effect, Scirpus juncoides Roxb.” value in assay [1] was 5 (90% or more of herbicidal effect and crop phytotoxicity). In addition, the “herbicidal effect, Echinochloa oryzicola Vasing” value in assay [2] was 5 (90% or more of herbicidal effect and crop phytotoxicity). For the same compound, the “herbicidal effect, Monochoria vaginalis” value in [3] is 5 (90% or more of herbicidal effect and crop phytotoxicity). Further, the “herbicidal effect (index), Barnyardgrass” value in [4] is 5 (90% or more of herbicidal effect and crop phytotoxicity); in assay [8], 5 (90% or more of herbicidal effect and crop phytotoxicity). Besides, the “herbicidal effect (index), Green Foxtail” value in assay [5] is 5 (90% or more of herbicidal effect and crop phytotoxicity); in [9], 5 (90% or more of herbicidal effect and crop phytotoxicity). Moreover, the “herbicidal effect (index), Slender Amaranth” value in assay [6] was 5 (90% or more of herbicidal effect and crop phytotoxicity); in assay [10], 5 (90% or more of herbicidal effect and crop phytotoxicity). The “herbicidal effect (index), Velvetleaf” value in [7] is 5 (90% or more of herbicidal effect and crop phytotoxicity); in assay [11], 5 (90% or more of herbicidal effect and crop phytotoxicity).

In the case of `O=C1CCCC(O)=C1C(=O)c1ccc(C(F)(F)F)n(-c2cc(F)cc(F)c2)c1=O` [I-106], the “herbicidal effect, Scirpus juncoides Roxb.” value in [1] was 5 (90% or more of herbicidal effect and crop phytotoxicity). Also, the “herbicidal effect, Echinochloa oryzicola Vasing” value in assay [2] is 5 (90% or more of herbicidal effect and crop phytotoxicity). Also, the “herbicidal effect, Monochoria vaginalis” value in [3] is 5 (90% or more of herbicidal effect and crop phytotoxicity). The “herbicidal effect (index), Barnyardgrass” value is 5 (90% or more of herbicidal effect and crop phytotoxicity) in assay [4]; 5 (90% or more of herbicidal effect and crop phytotoxicity) in assay [8]. In addition, the “herbicidal effect (index), Green Foxtail” value is 5 (90% or more of herbicidal effect and crop phytotoxicity) in assay [5]; 5 (90% or more of herbicidal effect and crop phytotoxicity) in assay [9]. In addition, the “herbicidal effect (index), Slender Amaranth” value in [6] was 5 (90% or more of herbicidal effect and crop phytotoxicity); in assay [10], 5 (90% or more of herbicidal effect and crop phytotoxicity). Also, the “herbicidal effect (index), Velvetleaf” value in assay [7] is 5 (90% or more of herbicidal effect and crop phytotoxicity); in assay [11], 5 (90% or more of herbicidal effect and crop phytotoxicity).

Consider `O=C1CCCC(O)=C1C(=O)c1ccc(C(F)(F)F)n(-c2cc([N+](=O)[O-])ccc2F)c1=O` [I-107], for which the “herbicidal effect, Scirpus juncoides Roxb.” value in assay [1] is 5 (90% or more of herbicidal effect and crop phytotoxicity). For the same compound, the “herbicidal effect, Echinochloa oryzicola Vasing” value in assay [2] is 5 (90% or more of herbicidal effect and crop phytotoxicity). Further, the “herbicidal effect, Monochoria vaginalis” value in assay [3] was 5 (90% or more of herbicidal effect and crop phytotoxicity). Further, the “herbicidal effect (index), Barnyardgrass” value in assay [4] was 5 (90% or more of herbicidal effect and crop phytotoxicity); in [8], 5 (90% or more of herbicidal effect and crop phytotoxicity). The “herbicidal effect (index), Green Foxtail” value in assay [5] was 5 (90% or more of herbicidal effect and crop phytotoxicity); in [9], 3 (50 to less than 70% of herbicidal effect and crop phytotoxicity). Besides, the “herbicidal effect (index), Slender Amaranth” value was 5 (90% or more of herbicidal effect and crop phytotoxicity) in assay [6]; 5 (90% or more of herbicidal effect and crop phytotoxicity) in [10]. Also, the “herbicidal effect (index), Velvetleaf” value was 5 (90% or more of herbicidal effect and crop phytotoxicity) in assay [7]; 5 (90% or more of herbicidal effect and crop phytotoxicity) in assay [11].
